Reference: PubChem BioAssay (NCI)
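Interpolation was linear, between the two tested concentrations surrounding the appropriate level; five concentrations were tested over 48 hours in 96-well plates. GI50: concentration for 50% inhibition of growth. TGI: concentration producing complete growth inhibition.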

What was measured:
Assay in all cases: inhibition of tumour cell growth, NCI panel, 48 h
[1] = test system: OVCAR-5 ovarian
[2] = test system: HT29 colon
[3] = test system: HCT-15 colon
[4] = test system: NCI-H226 lung
[5] = test system: SW-620 colon
[6] = test system: SK-OV-3 ovarian
[7] = test system: RXF 393 renal
[8] = test system: SF-268 CNS
[9] = test system: RPMI-8226 leukemia
[10] = test system: UACC-62 melanoma
[11] = test system: HOP-62 NSCLC
[12] = test system: SR leukemia
[13] = test system: MALME-3M melanoma
[14] = test system: DU-145 prostate
[15] = test system: UACC-257 melanoma
[16] = test system: T-47D breast
[17] = test system: KM12 colon
[18] = test system: U251 CNS
[19] = test system: SF-295 CNS
[20] = test system: MDA-MB-435
[21] = test system: M14 melanoma
[22] = test system: LOX IMVI melanoma
[23] = test system: NCI-H460 lung
[24] = test system: 786-0 renal
[25] = test system: OVCAR-3 ovarian
[26] = test system: SF-539 CNS
[27] = test system: OVCAR-8 ovarian
[28] = test system: EKVX NSCLC
[29] = test system: SK-MEL-2 melanoma
[30] = test system: NCI-H23 lung
[31] = test system: COLO 205 colon
[32] = test system: SNB-75 CNS
[33] = test system: HCC-2998 colon
[34] = test system: UO-31 renal
[35] = test system: IGROV1 ovarian
[36] = test system: SNB-19 CNS
[37] = test system: HCT-116 colon
[38] = test system: CAKI-1 renal
[39] = test system: A549 NSCLC
[40] = test system: HOP-92 NSCLC
[41] = test system: NCI/ADR-RES ovarian
[42] = test system: MDA-MB-231 breast
[43] = test system: SN12C renal
[44] = test system: OVCAR-4 ovarian
[45] = test system: MCF7 breast
[46] = test system: BT-549 breast
[47] = test system: MOLT-4 leukemia
[48] = test system: K-562 leukemia
[49] = test system: NCI-H522 lung
[50] = test system: HS 578T breast
[51] = test system: TK-10 renal
[52] = test system: ACHN renal
[53] = test system: SK-MEL-28 melanoma
[54] = test system: HL-60(TB) leukemia
[55] = test system: PC-3 prostate
[56] = test system: SK-MEL-5 melanoma
[57] = test system: CCRF-CEM leukemia

CC[C@H](C)[C@H](NC(=O)c1ccccn1)C(=O)N(C)[C@H](C[C@@H](OC(C)=O)c1nc(C(=O)N[C@@H](Cc2ccccc2)C[C@H](C)C(=O)OC)cs1)C(C)C
GI50 [1]: 27.9 µM | TGI [1]: > 100 µM | GI50 [2]: 26.3 µM | TGI [2]: > 100 µM | GI50 [3]: 21.7 µM | TGI [3]: > 100 µM | GI50 [4]: 45 µM | TGI [4]: > 100 µM | GI50 [5]: 23.1 µM | TGI [5]: > 100 µM | GI50 [6]: 33.4 µM | TGI [6]: > 100 µM | GI50 [7]: 7.56 µM | TGI [7]: 60.4 µM | GI50 [8]: 29 µM | TGI [8]: > 100 µM | GI50 [9]: 6.98 µM | TGI [9]: > 100 µM | GI50 [10]: 4.56 µM | TGI [10]: > 100 µM | GI50 [11]: 26.1 µM | TGI [11]: > 100 µM | GI50 [12]: 3.88 µM | TGI [12]: 81 µM | GI50 [13]: 15.7 µM | TGI [13]: > 100 µM | GI50 [14]: 34.7 µM | TGI [14]: > 100 µM | GI50 [15]: 36.8 µM | TGI [15]: > 100 µM | GI50 [16]: 43 µM | TGI [16]: > 100 µM | GI50 [17]: 8.08 µM | TGI [17]: > 100 µM | GI50 [18]: 28.5 µM | TGI [18]: > 100 µM | GI50 [19]: 21.7 µM | TGI [19]: > 100 µM | GI50 [20]: 2.08 µM | TGI [20]: 5.64 µM | GI50 [21]: 9.25 µM | TGI [21]: 38.4 µM | GI50 [22]: 22.3 µM | TGI [22]: > 100 µM | GI50 [23]: 18.6 µM | TGI [23]: 57 µM | GI50 [24]: 16.1 µM | TGI [24]: 59.7 µM | GI50 [25]: 10.9 µM | TGI [25]: 40.7 µM | GI50 [26]: 17.1 µM | TGI [26]: 50.8 µM | GI50 [27]: 33.3 µM | TGI [27]: > 100 µM | GI50 [28]: 35.3 µM | TGI [28]: > 100 µM | GI50 [29]: 12.8 µM | TGI [29]: > 100 µM | GI50 [30]: 24.6 µM | TGI [30]: > 100 µM | GI50 [31]: 16.8 µM | TGI [31]: 42 µM | GI50 [32]: 5.73 µM | TGI [32]: 98 µM | GI50 [33]: 19.1 µM | TGI [33]: > 100 µM | GI50 [34]: 18 µM | TGI [34]: > 100 µM | GI50 [35]: 11.6 µM | TGI [35]: > 100 µM | GI50 [36]: 33.8 µM | TGI [36]: > 100 µM | GI50 [37]: 11.2 µM | TGI [37]: 50.3 µM | GI50 [38]: 30.6 µM | TGI [38]: > 100 µM | GI50 [39]: 48.9 µM | TGI [39]: > 100 µM | GI50 [40]: 6.88 µM | TGI [40]: 80.9 µM | GI50 [41]: 25.3 µM | TGI [41]: > 100 µM | GI50 [42]: 15.7 µM | TGI [42]: 48.2 µM | GI50 [43]: 30 µM | TGI [43]: > 100 µM | GI50 [44]: 31.1 µM | TGI [44]: > 100 µM | GI50 [45]: 4.92 µM | TGI [45]: > 100 µM | GI50 [46]: 11.4 µM | TGI [46]: 42.5 µM | GI50 [47]: 24.7 µM | TGI [47]: 90.2 µM | GI50 [48]: 17.5 µM | TGI [48]: > 100 µM | GI50 [49]: 8.93 µM | TGI [49]: 38.9 µM | GI50 [50]: 12.8 µM | TGI [50]: 45.7 µM | GI50 [51]: 54.1 µM | TGI [51]: > 100 µM | GI50 [52]: 27.3 µM | TGI [52]: > 100 µM | GI50 [53]: 35.1 µM | TGI [53]: > 100 µM | GI50 [54]: 7.89 µM | TGI [54]: 54 µM | GI50 [55]: 23.6 µM | TGI [55]: > 100 µM | GI50 [56]: 10.7 µM | TGI [56]: 42.5 µM | GI50 [57]: 21.5 µM | TGI [57]: > 100 µM
